# Source: PMC10053369, “Recombinant Analogs of Sea Anemone Kunitz-Type Peptides Influence P2X7 Receptor Activity in Neuro-2a Cells” (Marine Drugs, 2023)
# Positions of bridges follow the written chain, without caps; N, C: chain ends. No end group written: not given here.
# Legend:
# [1] = system: Kv1.1, Kv1.2, Kv1.3 and Kv1.6 isoforms as well as insect Shaker IR; conditions: range over channels and both peptides, ref [16],[25]; cited from earlier work
# Text: The studied peptides are analogs of sea anemone Kunitz-type peptides and attract our attention due to their wide spectrum of biological activity and ability to interact with important molecular targets.
# P2X7 in Neuro-2a cells [2] = test: ATP-induced Ca2+ influx (Fluo-8 AM); assay type: cell-based, mouse; conditions: for reduction of calcium level: 30 min pre-incubation, 1 mM ATP
# Protocol: Neuro-2a neuroblastoma cells (ATCC® CCL-131™) were obtained from American Type Culture Collection (Manassas, VA, USA). The cells were cultivated in DMEM medium (BioloT, St. Petersburg, Russia) supplemented with 10% of fetal bovine serum (BioloT, St. Petersburg, Russia) and 1% penicillin/streptomycin (BioloT, St. Petersburg, Russia) at 37 °C and 5% CO2. Initially, cells were incubated in cultural flasks until sub-confluent (~80%). For testing, Neuro-2a cells were seeded in 96-well plates and experiments were started after 24 h.
# Neuro-2a cells were seeded in 96-well plates at a density of 4 × 10^4 cells/well and incubated in DMEM for 24 h at 37 °C, 5% CO2. Then the cells were washed twice with culture medium and loaded with 5 μM Fluo-8 AM (Abcam, Cambridge, UK) dye and 1 μM Pluronic® F-127 (Sigma-Aldrich, St. Louis, MO, USA), and incubated for 40 min at 37 °C in HBSS: 140 mM NaCl, 5 mM KCl, 0.8 mM MgCl2, 2 mM CaCl2, 10 mM glucose, 10 mM HEPES, pH 7.4. Then the cells were washed two times with the same solution but without the fluorescent dye and treated with the studied peptides for 30 min at RT in the dark. In some experiments Ca^2+-free medium was used: 140 mM NaCl, 5 mM KCl, 0.8 mM MgCl2, 10 mM glucose, 10 mM HEPES, 5 mM EGTA, pH 7.4. ATP (1 mM final concentration) was added using a microinjector (20 μL/well) 10 s later the baseline recording and the readings were taken up to 50 s in 1 s intervals. The standard P2X7 inhibitor, A438079 (Sigma-Aldrich, St. Louis, MO, USA), was used as inhibitory control. Ionomycin (Sigma-Aldrich, St. Louis, MO, USA) and BHQ were used to generate a generic calcium signal in cells. 2,5,-di(t-butyl) hydroquinone (BHQ) was synthesized and kindly provided by Dr. Polonik S.N. (PIBOC FEBRAS). Fluo-8 was excited at 485 nm, and the emission at 520 nm was measured with a PHERAstar®FS plate reader (BMG LABTECH, Ortenberg, Germany). The data were processed by MARS Data Analysis v. 3.01R2 (BMG Labtech, Ortenberg, Germany). Mean values and standard error of peak height calcium were calculated.
# All data were obtained in three independent replicates and calculated values were expressed as mean ± standard error of the mean (SEM). The Student’s t-test was performed using SigmaPlot 14.0 (Systat Software Inc., San Jose, CA, USA) to determine statistical significance.
# P2X7 in Neuro-2a cells [3] = test: P2X7 immunofluorescence / expression (confocal microscopy); assay type: cell-based, mouse; conditions: 10 μM peptide, 24 h
# Protocol: Neuro-2a cells on coverslips were washed once with PBS, fixed with cold 100% methanol for 5 min in an ice bath, and then washed (3 × 5 min) with PBS. For P2X7 receptor immunocytochemistry, cells were blocked with 10% bovine serum in PBS containing 0.1% Triton X-100 (1 h) and incubated with specific to P2X7 primary antibodies (1:1000; orb35965 Biorbyt Ltd., Cambridge, UK) overnight at 4 °C. Cells were washed with PBS (3 × 10 min) and incubated with Alexa Fluor 594-conjugated goat anti-rabbit secondary antibodies (1:200, Abcam plc, Cambridge, UK) for 2 h at room temperature. Cells were washed in PBS (3 × 10 min) before mounting. In control experiments, the primary antibody was omitted, and immunostaining was never observed. Neuro-2a cell fluorescence was studied using an LSM 710 META confocal laser scanning microscope (Carl Zeiss, Göttingen, Germany) equipped with an Ar laser with an effective power of 30 mW. The obtained images were analyzed using the ZEN 2.3 (blue edition) software (Carl Zeiss, Göttingen, Germany).
sequence,measurement,setting,value
"RGICSEPKVVGPCKAGLRRFYYDSETGECKPFIYGGCKGNKNNFETLHACRGICRA (disulfide 4-54, 13-37, 29-50 (inferred)) [HCRG1]",IC50,[1],12 to 400 nM
same,reduction of calcium level,"P2X7 in Neuro-2a cells [2]; 0.1 μM peptide, mean ± SE, n = 3",57.5 ± 11.6%
same,reduction of calcium level,P2X7 in Neuro-2a cells [2]; 0.1–10 μM peptide,significantly reduced the calcium level
same,effect on Ca2+ influx (summary in discussion),P2X7 in Neuro-2a cells [2]; short-term effect,a significant effect on Ca^2+ influx into cells
same,amount of P2X7 in Neuro-2a cells,P2X7 in Neuro-2a cells [3],significantly reduced the amount of P2X7 in Neuro-2a cells
same,decrease in P2X7 fluorescence,"P2X7 in Neuro-2a cells [3]; mean ± SE, n = 3, p < 0.05",24.1 ± 3.2%
